Literature values in PMC11054271, “ABCG2 Transports the Flukicide Nitroxynil and Affects Its Biodistribution and Secretion into Milk” (Pharmaceutics, 2024).

Test system: Abcg2
Design: method as in PMID 34062171
Details: mice; cited from earlier work

Cc1c(Cl)cccc1Nc1ccccc1C(=O)O [tolfenamic acid]
Testis accumulation, fold higher in Abcg2−/− compared to wild-type: ~3 fold
